Source: US12570675B2, “Boronic acid compounds” (LG CHEM, LTD., priority 2020, dated 2026)

Each compound was assayed against Proteasome chymotrypsin-like activity (S26 protein from RPMI8226 cells) (Homo sapiens, UniProt P28074). Conditions: S26 protein from RPMI8226 cell extract 2 ug/well, substrate 20 uM, 37° C., 90 minutes; read-out: Proteasome chymotrypsin-like activity inhibition IC50.
Format: biochemical
Outline: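 Inhibition is measured in crude proteasome (S26) from RPMI8226 cells at 2 ug/well, using 20 uM substrate specific to each activity: Suc-LLVY-AMC for chymotrypsin-like, Z-LLE-AMC for caspase-like. Compounds span a dilution series from 10 uM.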

Proteasome chymotrypsin-like activity (S26 protein from RPMI8226 cells), sequence (P28074 60-263 limits assumed): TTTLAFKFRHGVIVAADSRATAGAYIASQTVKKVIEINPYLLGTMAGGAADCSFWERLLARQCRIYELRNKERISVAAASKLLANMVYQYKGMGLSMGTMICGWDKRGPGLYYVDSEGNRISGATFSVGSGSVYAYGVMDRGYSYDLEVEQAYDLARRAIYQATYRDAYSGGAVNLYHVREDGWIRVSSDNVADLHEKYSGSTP

SMILES | IC50 [nM]
CC(C)C[C@H](NC(=O)C1(Cc2ccccc2)CC(CNCc2cc(Cl)ccc2Cl)=NO1)B(O)O (stereo partly drawn) [Example 146, ((1R)-1-(5-benzyl-3-(((2,5-dichlorobenzyl)amino)methyl)-4,5-dihydroisoxazol-5-carboxamido)-3-methylbutyl)boronic acid] | < 25
CC(C)C[C@H](NC(=O)C1(Cc2ccccc2)CC(CNCc2nccc3ccccc23)=NO1)B(O)O (stereo partly drawn) [Example 147, ((1R)-1-(5-benzyl-3-(((isoquinolin-1-ylmethyl)amino)methyl)-4,5-dihydroisoxazol-5-carboxamido)-3-methylbutyl)boronic acid] | < 25
CC(C)C[C@H](NC(=O)C1(C(F)(F)c2ccccc2)CC(CNC(=O)c2nccc3ccccc23)=NO1)B(O)O (stereo partly drawn) [Example 155, ((1R)-1-(5-(difluoro(phenyl)methyl)-3-((isoquinolin-1-carboxamido)methyl)-4,5-dihydroisoxazol-5-carboxamido)-3-methylbutyl)boronic acid] | < 25
CC(C)C[C@H](NC(=O)C1(C(F)(F)c2ccccc2)CC(CNC(=O)c2cccn3ccnc23)=NO1)B(O)O (stereo partly drawn) [Example 156, ((1R)-1-(5-(difluoro(phenyl)methyl)-3-((imidazo[1,2-a]pyridin-8-carboxamido)methyl)-4,5-dihydroisoxazol-5-carboxamido)-3-methylbutyl)boronic acid] | < 25
CC(C)C[C@H](NC(=O)C1(Cc2ccccc2)CC(C(C)(C)NC(=O)c2cccn3ccnc23)=NO1)B(O)O (stereo partly drawn) [Example 158, ((1R)-1-(5-benzyl-3-(2-(imidazo[1,2-a]pyridin-8-carboxamido)propan-2-yl)-4,5-dihydroisoxazol-5-carboxamido)-3-methylbutyl)boronic acid] | < 100
Cc1cccnc1C(=O)NCC1=NOC(Cc2ccccc2)(C(=O)N[C@@H](CC(C)C)B(O)O)C1 (stereo partly drawn) [Example 159, ((1R)-1-(5-benzyl-3-((3-methylpicolinamido)methyl)-4,5-dihydroisoxazol-5-carboxamido)-3-methylbutyl)boronic acid] | < 10
CC(C)C[C@H](NC(=O)C1(Cc2ccccc2)CC(CNC(=O)c2nccnc2N)=NO1)B(O)O (stereo partly drawn) [Example 161, ((1R)-1-(3-((3-aminopyrazin-2-carboxamido)methyl)-5-benzyl-4,5-dihydroisoxazol-5-carboxamido)-3-methylbutyl)boronic acid] | < 10
CC(C)C[C@H](NC(=O)C1(Cc2ccccc2)CC(CNC(=O)c2cc(F)c(F)cc2Cl)=NO1)B(O)O (stereo partly drawn) [Example 163, ((1R)-1-(5-benzyl-3-((2-chloro-4,5-difluorobenzamido)methyl)-4,5-dihydroisoxazol-5-carboxamido)-3-methylbutyl)boronic acid] | < 10
CC(C)C[C@H](NC(=O)C1(Cc2ccccc2)CC(CNC(=O)c2cc(F)cnc2Cl)=NO1)B(O)O (stereo partly drawn) [Example 164, ((1R)-1-(5-benzyl-3-((2-chloro-5-fluoronicotinamido)methyl)-4,5-dihydroisoxazol-5-carboxamido)-3-methylbutyl)boronic acid] | < 10
CC(C)C[C@H](NC(=O)C1(Cc2ccccc2)CC(CNC(=O)c2cnnc3ccccc23)=NO1)B(O)O (stereo partly drawn) [Example 165, ((1R)-1-(5-benzyl-3-((cinnolin-4-carboxamido)methyl)-4,5-dihydroisoxazol-5-carboxamido)-3-methylbutyl)boronic acid] | < 10
CC(C)C[C@H](NC(=O)C1(Cc2ccccc2)CC(CNC(=O)c2ccnnc2)=NO1)B(O)O (stereo partly drawn) [Example 166, ((1R)-1-(5-benzyl-3-((pyridazin-4-carboxamido)methyl)-4,5-dihydroisoxazol-5-carboxamido)-3-methylbutyl)boronic acid] | < 25
CC(C)C[C@H](NC(=O)C1(Cc2ccccc2C(F)(F)F)CC(CNC(=O)c2nccc3ccccc23)=NO1)B(O)O (stereo partly drawn) [Example 167, ((1R)-1-(3-((isoquinolin-1-carboxamido)methyl)-5-(2-(trifluoromethyl)benzyl)-4,5-dihydroisoxazol-5-carboxamido)-3-methylbutyl)boronic acid] | < 10
CC(C)C[C@H](NC(=O)C1(Cc2ccccc2)CC(CNC(=O)c2cocn2)=NO1)B(O)O (stereo partly drawn) [Example 168, ((1R)-1-(5-benzyl-3-((oxazol-4-carboxamido)methyl)-4,5-dihydroisoxazol-5-carboxamido)-3-methylbutyl)boronic acid] | < 25
CC(C)C[C@H](NC(=O)C1(Cc2ccccc2)CC(CNC(=O)c2ccn[nH]2)=NO1)B(O)O (stereo partly drawn) [Example 169, ((1R)-1-(3-((1H-pyrazol-5-carboxamido)methyl)-5-benzyl-4,5-dihydroisoxazol-5-carboxamido)-3-methylbutyl)boronic acid] | < 25
CC(C)C[C@H](NC(=O)C1(Cc2ccccc2)CC(CNC(=O)c2ccn(C(C)C)n2)=NO1)B(O)O (stereo partly drawn) [Example 172, ((1R)-1-(5-benzyl-3-((1-isopropyl-1H-pyrazol-3-carboxamido)methyl)-4,5-dihydroisoxazol-5-carboxamido)-3-methylbutyl)boronic acid] | < 10
Cc1nc(C(=O)NCC2=NOC(Cc3ccccc3)(C(=O)N[C@@H](CC(C)C)B(O)O)C2)co1 (stereo partly drawn) [Example 173, ((1R)-1-(5-benzyl-3-((2-methyloxazol-4-carboxamido)methyl)-4,5-dihydroisoxazol-5-carboxamido)-3-methylbutyl)boronic acid] | < 25
CC(C)C[C@H](NC(=O)C1(Cc2c(F)cccc2F)CC(CNC(=O)c2nccc3ccccc23)=NO1)B(O)O (stereo partly drawn) [Example 174, ((1R)-1-(5-(2,6-difluorobenzyl)-3-((isoquinolin-1-carboxamido)methyl)-4,5-dihydroisoxazol-5-carboxamido)-3-methylbutyl)boronic acid] | < 10
CC(C)C[C@H](NC(=O)C1(Cc2cccc(Cl)c2)CC(CNC(=O)c2nccc3ccccc23)=NO1)B(O)O (stereo partly drawn) [Example 175, ((1R)-1-(5-(3-chlorobenzyl)-3-((isoquinolin-1-carboxamido)methyl)-4,5-dihydroisoxazol-5-carboxamido)-3-methylbutyl)boronic acid] | < 10
CC(C)C[C@H](NC(=O)C1(Cc2ccccc2)CC(CNC(=O)c2ccnn2C)=NO1)B(O)O (stereo partly drawn) [Example 176, ((1R)-1-(5-benzyl-3-((1-methyl-1H-pyrazol-5-carboxamido)methyl)-4,5-dihydroisoxazol-5-carboxamido)-3-methylbutyl)boronic acid] | < 25

Next, values leading:

IC50 [nM] | SMILES
< 10 | COc1cccc(CC2(C(=O)N[C@@H](CC(C)C)B(O)O)CC(CNC(=O)c3cccn4ccnc34)=NO2)c1 (stereo partly drawn) [Example 135, ((1R)-1-(3-((imidazo[1,2-a]pyridin-8-carboxamido)methyl)-5-(3-methoxybenzyl)-4,5-dihydroisoxazol-5-carboxamido)-3-methylbutyl)boronic acid]
< 10 | CC(C)C[C@H](NC(=O)C1(C(C)c2ccccc2)CC(CNC(=O)c2nccc3ccccc23)=NO1)B(O)O (stereo partly drawn) [Example 136, ((1R)-1-(3-((isoquinolin-1-carboxamido)methyl)-5-(1-phenylethyl)-4,5-dihydroisoxazol-5-carboxamido)-3-methylbutyl)boronic acid]
< 10 | CC(C)C[C@H](NC(=O)C1(Cc2cscn2)CC(CNC(=O)c2nccc3ccccc23)=NO1)B(O)O (stereo partly drawn) [Example 137, ((1R)-1-(3-((isoquinolin-1-carboxamido)methyl)-5-(thiazol-4-ylmethyl)-4,5-dihydroisoxazol-5-carboxamido)-3-methylbutyl)boronic acid]
< 10 | Cc1cn2cccc(C(=O)NCC3=NOC(Cc4ccccc4)(C(=O)N[C@@H](CC(C)C)B(O)O)C3)c2n1 (stereo partly drawn) [Example 139, ((1R)-1-(5-benzyl-3-((2-methylimidazo[1,2-a]pyridin-8-carboxamido)methyl)-4,5-dihydroisoxazol-5-carboxamido)-3-methylbutyl)boronic acid]
< 10 | Cc1nc2c(C(=O)NCC3=NOC(Cc4ccccc4)(C(=O)N[C@@H](CC(C)C)B(O)O)C3)cccn2c1Cl (stereo partly drawn) [Example 140, ((1R)-1-(5-benzyl-3-((3-chloro-2-methylimidazo[1,2-a]pyridin-8-carboxamido)methyl)-4,5-dihydroisoxazol-5-carboxamido)-3-methylbutyl)boronic acid]
< 10 | CC(C)C[C@H](NC(=O)C1(Cc2ccccc2)CC(CNC(=O)c2cccn3c(Cl)cnc23)=NO1)B(O)O (stereo partly drawn) [Example 142, ((1R)-1-(5-benzyl-3-((3-chloroimidazo[1,2-a]pyridin-8-carboxamido)methyl)-4,5-dihydroisoxazol-5-carboxamido)-3-methylbutyl)boronic acid]
< 10 | CC(C)C[C@H](NC(=O)C1(Cc2ccccc2)CC(CNS(=O)(=O)c2cccc3cccnc23)=NO1)B(O)O (stereo partly drawn) [Example 144, ((1R)-1-(5-benzyl-3-((quinolin-8-sulfonamido)methyl)-4,5-dihydroisoxazol-5-carboxamido)-3-methylbutyl)boronic acid]
< 10 | CC(C)C[C@H](NC(=O)C1(Cn2cccn2)CC(CNC(=O)c2cccn3ccnc23)=NO1)B(O)O (stereo partly drawn) [Example 149, ((1R)-1-(5-((1H-pyrazol-1-yl)methyl)-3-((imidazo[1,2-a]pyridin-8-carboxamido)methyl)-4,5-dihydroisoxazol-5-carboxamido)-3-methylbutyl)boronic acid]
< 10 | CC(C)C[C@H](NC(=O)C1(Cc2cscn2)CC(CNC(=O)c2cccn3ccnc23)=NO1)B(O)O (stereo partly drawn) [Example 150, ((1R)-1-(3-((imidazo[1,2-a]pyridin-8-carboxamido)methyl)-5-(thiazol-4-ylmethyl)-4,5-dihydroisoxazol-5-carboxamido)-3-methylbutyl)boronic acid]
< 10 | CC(C)C[C@H](NC(=O)C1(Cc2ccccc2)CC(C(C)(C)NC(=O)c2nccc3ccccc23)=NO1)B(O)O (stereo partly drawn) [Example 157, [(1R)-1-[[5-benzyl-3-[1-(isoquinolin-1-carbonylamino)-1-methyl-ethyl]-4H-1,2-oxazol-5-carbonyl]amino]-3-methyl-butyl]boronic acid]
